Experimental data: ChEMBL document CHEMBL5550214, “Expanding Structure-Activity Relationships of Human Urotensin II Peptide Analogues: A Proposed Key Role of the N-Terminal Region for Novel Urotensin II Receptor Modulators” (J Med Chem, 2024)
Active and inactive are the calls of the source. The calls are words filed in the database; no cut-off is given here.

How the values were obtained:
[1] = target: T1, Urotensin-2 receptor (Homo sapiens) (UniProt Q9UKP6); assay: Modulation of human UTR stably expressed in HEK293 cells assessed as increase in Ca2+ level at 0.1 to 100 nM by Fura 2-AM dye based calcium mobilization assay; type: functional, cell-based; settings: dose 0.1-100 nM
T1 sequence (whole entry): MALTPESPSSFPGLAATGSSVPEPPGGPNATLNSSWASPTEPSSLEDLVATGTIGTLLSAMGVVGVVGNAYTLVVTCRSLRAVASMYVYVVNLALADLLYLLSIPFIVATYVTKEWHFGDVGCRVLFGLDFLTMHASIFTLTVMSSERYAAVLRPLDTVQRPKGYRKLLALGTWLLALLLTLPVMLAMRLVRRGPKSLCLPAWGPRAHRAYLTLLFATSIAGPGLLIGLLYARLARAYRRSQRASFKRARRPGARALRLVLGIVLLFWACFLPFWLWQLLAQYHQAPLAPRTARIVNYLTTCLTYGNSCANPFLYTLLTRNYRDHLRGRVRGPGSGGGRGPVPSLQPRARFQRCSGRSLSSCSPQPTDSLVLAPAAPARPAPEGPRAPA

[2] = test system: Aortic ring; assay: Induction of contraction in Albino Wistar rat aortic ring at 1 to 30 nM; type: functional, tissue-based; settings: Aorta, dose 1-30 nM
[3] = test system: Aortic ring; assay: Induction of contraction in Albino Wistar rat aortic ring assessed as Emax of hU-II at 0.1 uM incubated for 30 mins in presence of hU-II (reference value: 238.4 +/- 9.53 dyne/mg); type: functional, Aorta; settings: 0.5 h
[4] = test system: Aortic ring; assay: Induction of contraction in Albino Wistar rat aortic ring assessed as Emax of hU-II at 10 uM incubated for 30 mins in presence of hU-II (reference value: 251.4 +/- 15.43 dyne/mg); type: functional, Aorta; settings: 0.5 h
[5] = test system: Aortic ring; assay: Induction of contraction in Albino Wistar rat aortic ring assessed as Emax of hU-II at 1 uM incubated for 30 mins in presence of hU-II (reference value: 279.9 +/- 11.02 dyne/mg); type: functional, Aorta; settings: 0.5 h
[6] = test system: Aortic ring; assay: Induction of contraction in Albino Wistar rat aortic ring assessed as Emax of U-II(4-11) at 10 uM incubated for 30 mins in presence of U-II(4-11) (reference value: 159.8 +/- 7.39 dyne/mg); type: functional, Aorta; settings: 0.5 h
[7] = test system: Aortic ring; assay: Induction of contraction in Albino Wistar rat aortic ring assessed as Emax of U-II(4-11) at 0.1 uM incubated for 30 mins in presence of U-II(4-11) (reference value: 152.4 +/- 5.1 dyne/mg); type: functional, Aorta; settings: 0.5 h
[8] = test system: Aortic ring; assay: Induction of contraction in Albino Wistar rat aortic ring assessed as Emax of U-II(4-11) at 1 uM incubated for 30 mins in presence of U-II(4-11) (reference value: 242.6 +/- 20.63 dyne/mg); type: functional, Aorta; settings: 0.5 h
[9] = test system: Aortic ring; assay: Induction of contraction in Albino Wistar rat aortic ring assessed as Emax of [Ala1]U-II at 0.1 uM incubated for 30 mins in presence of [Ala1]U-II (reference value: 391.6 +/- 38.83 dyne/mg); type: functional, Aorta; settings: 0.5 h
[10] = test system: Aortic ring; assay: Induction of contraction in Albino Wistar rat aortic ring assessed as Emax of [Ala1]U-II at 10 uM incubated for 30 mins in presence of [Ala1]U-II (reference value: 220.3 +/- 17.48 dyne/mg); type: functional, Aorta; settings: 0.5 h
[11] = test system: Aortic ring; assay: Induction of contraction in Albino Wistar rat aortic ring assessed as Emax of [Ala1]U-II at 1 uM incubated for 30 mins in presence of [Ala1]U-II (reference value: 323 +/- 30.45 dyne/mg); type: functional, Aorta; settings: 0.5 h
[12] = test system: Aortic ring; assay: Induction of contraction in Albino Wistar rat aortic ring assessed as Emax of hU-II at 1 uM incubated for 30 mins in presence of hU-II (reference value: 238.4 +/- 9.53 dyne/mg); type: functional, Aorta; settings: 0.5 h
[13] = test system: Aortic ring; assay: Induction of contraction in Albino Wistar rat aortic ring assessed as Emax of hU-II at 0.1 uM incubated for 30 mins in presence of hU-II (reference value: 214.5 +/- 10.51 dyne/mg); type: functional, Aorta; settings: 0.5 h
[14] = test system: Aortic ring; assay: Induction of contraction in Albino Wistar rat aortic ring assessed as Emax of hU-II at 10 uM incubated for 30 mins in presence of hU-II (reference value: 279.9 +/- 11.02 dyne/mg); type: functional, Aorta; settings: 0.5 h
[15] = test system: Aortic ring; assay: Induction of contraction in Albino Wistar rat aortic ring assessed as Emax of U-II(4-11) at 0.1 uM incubated for 30 mins in presence of U-II(4-11) (reference value: 159.8 +/- 7.3 dyne/mg); type: functional, Aorta; settings: 0.5 h
[16] = test system: Aortic ring; assay: Induction of contraction in Albino Wistar rat aortic ring assessed as Emax of U-II(4-11) at 1 uM incubated for 30 mins in presence of U-II(4-11) (reference value: 152.4 +/- 5.1 dyne/mg); type: functional, Aorta; settings: 0.5 h
[17] = test system: Aortic ring; assay: Induction of contraction in Albino Wistar rat aortic ring assessed as Emax of U-II(4-11) at 10 uM incubated for 30 mins in presence of U-II(4-11) (reference value: 242.6 +/- 20.63 dyne/mg); type: functional, Aorta; settings: 0.5 h
[18] = test system: Aortic ring; assay: Induction of contraction in Albino Wistar rat aortic ring assessed as Emax of [Ala1]U-II at 1 uM incubated for 30 mins in presence of [Ala1]U-II (reference value: 391.6 +/- 38.83 dyne/mg); type: functional, Aorta; settings: 0.5 h
[19] = test system: Aortic ring; assay: Induction of contraction in Albino Wistar rat aortic ring assessed as Emax of [Ala1]U-II at 0.1 uM incubated for 30 mins in presence of [Ala1]U-II (reference value: 153.3 +/- 10.75 dyne/mg); type: functional, Aorta; settings: 0.5 h
[20] = test system: Aortic ring; assay: Induction of contraction in Albino Wistar rat aortic ring assessed as Emax of [Ala1]U-II at 10 uM incubated for 30 mins in presence of [Ala1]U-II (reference value: 323 +/- 30.45 dyne/mg); type: functional, Aorta; settings: 0.5 h

For `CC(C)[C@H](NC(=O)[C@@H]1CSSC(C)(C)[C@H](NC(=O)[C@H](CC(=O)O)NC(=O)[C@@H]2CCCN2C(=O)[C@@H](NC(=O)[C@@H](N)CCO)[C@@H](C)O)C(=O)N[C@@H](Cc2ccccc2)C(=O)N[C@H](Cc2c[nH]c3ccccc23)C(=O)N[C@@H](CCCN)C(=O)N[C@@H](Cc2ccc(O)cc2)C(=O)N1)C(=O)O`, the Activity [1] was “inactive”, the Activity [2] was “inactive” and the Emax [3] was 179.2 dyn/mg. For the same compound, the Emax [4] was 181.9 dyn/mg, the Emax [5] was 188.6 dyn/mg and the Emax [6] was 111.3 dyn/mg. The Emax [7] was 120.9 dyn/mg, the Emax [8] was 93.38 dyn/mg and the Emax [9] was 251.5 dyn/mg. For the same compound, the Emax [10] was 148.9 dyn/mg and the Emax [11] was 119.1 dyn/mg.

In the case of `CC(C)[C@H](NC(=O)[C@@H]1CSSC(C)(C)[C@H](NC(=O)[C@H](C)NC(=O)[C@@H]2CCCN2C(=O)[C@@H](NC(=O)[C@H](C)N)[C@@H](C)O)C(=O)N[C@@H](Cc2ccccc2)C(=O)N[C@H](Cc2c[nH]c3ccccc23)C(=O)N[C@@H](CCCN)C(=O)N[C@@H](Cc2ccc(O)cc2)C(=O)N1)C(=O)O`, the Activity [2] is reported as “inactive”, the Emax [12] is reported as 231.1 dyn/mg and the Emax [13] is reported as 386.5 dyn/mg. It also gave an Emax [14] of 126.2 dyn/mg, an Emax [15] of 354.4 dyn/mg and an Emax [16] of 502.2 dyn/mg. The Emax [17] was 261.8 dyn/mg, the Emax [18] was 593 dyn/mg and the Emax [19] was 406.4 dyn/mg. It also gave an Emax [20] of 457.6 dyn/mg.
